Source: ChEMBL document CHEMBL1127074, “Novel hypotensive agents from Verbesina caracasana. 2. Synthesis and pharmacology of caracasanamide” (1993)
Where “and” joins values, the source holds several entries; their conditions need not be identical. Identical values can stand only once.

Legend:
[1] = tested on: Rattus norvegicus; experiment: Tested for the change in systolic blood pressure administered at 3200 ug/kg intravenously in anesthetized rats in presence of phentolamine (2 mg/kg); format: functional, Artery
[2] = tested on: Rattus norvegicus; experiment: Tested for the change in systolic blood pressure administered at 50 ug/kg intravenously in anesthetized rats; format: functional, Artery
[3] = tested on: Rattus norvegicus; experiment: Tested for the change in diastolic blood pressure administered at 3200 ug/kg intravenously in anesthetized rats; format: functional, Artery
[4] = tested on: Rattus norvegicus; experiment: Tested for the change in diastolic blood pressure administered at 100 ug/kg intravenously in anesthetized rats; format: functional, Artery
[5] = tested on: Rattus norvegicus; experiment: Tested for the change in diastolic blood pressure administered at 800 ug/kg intravenously in anesthetized rats; format: functional, Artery
[6] = tested on: Rattus norvegicus; experiment: Change in heart rate administered at 1600 ug/kg iv in anesthetized rats in presence of propranolol (3 mg/kg) (p<0.05); format: functional
[7] = tested on: Rattus norvegicus; experiment: Maximum rate of rise of the left ventricular isovolumetric pressure administered at 4.12 uM/kg iv in anesthetized rats; format: functional, Heart left ventricle
[8] = tested on: Rattus norvegicus; experiment: Tested for the change in diastolic blood pressure administered at 3200 ug/kg iv in anesthetized rats in presence of propranolol (3 mg/kg); format: functional, Artery
[9] = tested on: Rattus norvegicus; experiment: Maximum rate of rise of the left ventricular isovolumetric pressure administered at 3200 ug/kg iv in anesthetized rats in presence of hexamethonium (5 mg/kg) (p<0.05); format: functional, Heart left ventricle
[10] = tested on: Rattus norvegicus; experiment: Tested for the change in systolic blood pressure administered at 3200 ug/kg intravenously in anesthetized rats in presence of propranolol (3 mg/kg); format: functional, Artery
[11] = tested on: Rattus norvegicus; experiment: Maximum rate of rise of the left ventricular isovolumetric pressure administered at 800 ug/kg iv in anesthetized rats in presence of […] (3 mg/kg) (p<0.05); format: functional, Heart left ventricle
[12] = tested on: Rattus norvegicus; experiment: Tested for the change in diastolic blood pressure administered at 800 ug/kg iv in anesthetized rats in presence of hexamethonium (5 mg/kg) (p<0.05); format: functional, Artery
[13] = tested on: Rattus norvegicus; experiment: Maximum rate of rise of the left ventricular isovolumetric pressure administered at 6400 ug/kg iv in anesthetized rats in presence of […] (3 mg/kg) (p<0.05); format: functional, Heart left ventricle
[14] = tested on: Rattus norvegicus; experiment: Change in heart rate administered at 800 ug/kg iv in anesthetized rats in presence of propranolol (3 mg/kg) (p<0.05); format: functional
[15] = tested on: Rattus norvegicus; experiment: Maximum rate of rise of the left ventricular isovolumetric pressure administered at 100 ug/kg iv in anesthetized rats in presence of spinalization under vagotomy; format: functional, Heart left ventricle
[16] = tested on: Rattus norvegicus; experiment: Tested for the change in diastolic blood pressure administered at 3200 ug/kg iv in anesthetized rats in presence of phentolamine (2 mg/kg); format: functional, Artery
[17] = tested on: Rattus norvegicus; experiment: Tested for the change in diastolic blood pressure administered at 3200 ug/kg iv in anesthetized rats in presence of hexamethonium (5 mg/kg) (p<0.05); format: functional, Artery
[18] = tested on: Rattus norvegicus; experiment: Tested for the change in diastolic blood pressure administered at 800 ug/kg iv in anesthetized rats in presence of phentolamine (2 mg/kg); format: functional, Artery
[19] = tested on: Rattus norvegicus; experiment: Maximum rate of rise of the left ventricular isovolumetric pressure (dP/dt) administered at 6400 ug/kg iv in anesthetized rats; format: functional, Heart left ventricle
[20] = tested on: Rattus norvegicus; experiment: Tested for the change in systolic blood pressure administered at 3200 ug/kg iv in anesthetized rats in presence of spinalization under vagotomy (p<0.05); format: functional, Artery
[21] = tested on: Rattus norvegicus; experiment: Maximum rate of rise of the left ventricular isovolumetric pressure administered at 800 ug/kg iv in anesthetized rats in presence of phentolamine (2 mg/kg); format: functional, Heart left ventricle
[22] = tested on: Rattus norvegicus; experiment: Maximum rate of rise of the left ventricular isovolumetric pressure (dP/dt) administered at 1600 ug/kg iv in anesthetized rats; format: functional, Heart left ventricle
[23] = tested on: Rattus norvegicus; experiment: Tested for the change in systolic blood pressure administered at 100 ug/kg intravenously in anesthetized rats in presence of spinalization under vagotomy; format: functional, Artery
[24] = tested on: Rattus norvegicus; experiment: Tested for the change in diastolic blood pressure administered at 6400 ug/kg iv in anesthetized rats in presence of propranolol (3 mg/kg); format: functional, Artery
[25] = tested on: Rattus norvegicus; experiment: Change in respiratory frequency administered at 100 ug/kg iv in anesthetized rats; format: functional
[26] = tested on: Rattus norvegicus; experiment: Change in respiratory frequency administered at 200 ug/kg iv in anesthetized rats; format: functional
[27] = tested on: Rattus norvegicus; experiment: Change in respiratory frequency administered at 400 ug/kg iv in anesthetized rats; format: functional
[28] = tested on: Rattus norvegicus; experiment: Tested for the change in systolic blood pressure administered at 1600 ug/kg intravenously in anesthetized rats in presence of hexamethonium (5 mg/kg) (p<0.05); format: functional, Artery
[29] = tested on: Rattus norvegicus; experiment: Tested for the change in systolic blood pressure administered at 100 ug/kg intravenously in anesthetized rats; format: functional, Artery
[30] = tested on: Rattus norvegicus; experiment: Change in heart rate administered at 200 ug/kg iv in anesthetized rats in presence of spinalization under vagotomy; format: functional
[31] = tested on: Rattus norvegicus; experiment: Tested for the change in diastolic blood pressure administered at 400 ug/kg intravenously in anesthetized rats; format: functional, Artery
[32] = tested on: Rattus norvegicus; experiment: Maximum rate of rise of the left ventricular isovolumetric pressure (dP/dt) administered at 100 ug/kg iv in anesthetized rats; format: functional, Heart left ventricle
[33] = tested on: Rattus norvegicus; experiment: Tested for the change in systolic blood pressure administered at 6400 ug/kg intravenously in anesthetized rats in presence of hexamethonium (5 mg/kg) (p<0.05); format: functional, Artery
[34] = tested on: Rattus norvegicus; experiment: Tested for the change in systolic blood pressure administered at 800 ug/kg intravenously in anesthetized rats; format: functional, Artery
[35] = tested on: Rattus norvegicus; experiment: Tested for the change in systolic blood pressure administered at 200 ug/kg iv in anesthetized rats in presence of spinalization under vagotomy; format: functional, Artery
[36] = tested on: Rattus norvegicus; experiment: Tested for the change in diastolic blood pressure administered at 800 ug/kg iv in anesthetized rats in presence of propranolol (3 mg/kg); format: functional, Artery
[37] = tested on: Rattus norvegicus; experiment: Tested for the change in diastolic blood pressure administered at 200 ug/kg intravenously in anesthetized rats; format: functional, Artery
[38] = tested on: Rattus norvegicus; experiment: Maximum rate of rise of the left ventricular isovolumetric pressure administered at 1600 ug/kg iv in anesthetized rats in presence of hexamethonium (5 mg/kg) (p<0.05); format: functional, Heart left ventricle
[39] = tested on: Rattus norvegicus; experiment: Maximum rate of rise of the left ventricular isovolumetric pressure (dP/dt) administered at 50 ug/kg iv in anesthetized rats; format: functional, Heart left ventricle
[40] = tested on: Rattus norvegicus; experiment: Change in respiratory frequency administered at 1600 ug/kg iv in anesthetized rats; format: functional
[41] = tested on: Rattus norvegicus; experiment: Change in heart rate administered at 3200 ug/kg iv in anesthetized rats in presence of propranolol (3 mg/kg) (p<0.05); format: functional
[42] = tested on: Rattus norvegicus; experiment: Maximum rate of rise of the left ventricular isovolumetric pressure administered at 800 ug/kg iv in anesthetized rats in presence of hexamethonium (5 mg/kg) (p<0.05); format: functional, Heart left ventricle

## COc1ccc(/C=C/C(=O)NCCCC/N=C(\N)NCC=C(C)C)cc1OC
[1]
  Blood pressure: -37 mmHg
[2]
  Blood pressure: -4 mmHg and -5%
[3]
  Blood pressure: -29 mmHg and -47%
[4]
  Blood pressure: -6 mmHg and -9%
[5]
  Blood pressure: -15 mmHg and -23%
[6]
  Heart rate: 7 beats min-1
[7]
  dP/dtmax: 3000 mmHg/s
[8]
  Blood pressure: -26 mmHg
[9]
  dp/dt: 1124 mmHg s-1
[10]
  Blood pressure: -30 mmHg
[11]
  dp/dt: 415 mmHg s-1
[12]
  Blood pressure: -6 mmHg
[13]
  dp/dt: 853 mmHg s-1
[14]
  Heart rate: 6 beats min-1
[15]
  dp/dt: 0 mmHg s-1
[16]
  Blood pressure: -39 mmHg
[17]
  Blood pressure: -17 mmHg
[18]
  Blood pressure: -19 mmHg
[19]
  BP: 58%
  dp/dt: 3074 mmHg s-1
[20]
  Blood pressure: -8 mmHg and -12 mmHg
[21]
  dp/dt: 2503 mmHg s-1
[22]
  BP: 57%
  dp/dt: 2996 mmHg s-1
[23]
  Blood pressure: 0 mmHg
[24]
  Blood pressure: -28 mmHg
[25]
  Frequency: 9 beats min-1 and 8%
[26]
  Frequency: 12 beats min-1 and 12%
[27]
  Frequency: 16 beats min-1 and 16%
[28]
  Blood pressure: -8 mmHg
[29]
  Blood pressure: -6 mmHg and -8%
[30]
  Heart rate: 0 beats min-1
[31]
  Blood pressure: -14 mmHg and -23%
[32]
  BP: 3%
  dp/dt: 141 mmHg s-1
[33]
  Blood pressure: -13 mmHg
[34]
  Blood pressure: -17 mmHg and -21%
[35]
  Blood pressure: 0 mmHg
[36]
  Blood pressure: -13 mmHg
[37]
  Blood pressure: -10 mmHg and -16%
[38]
  dp/dt: 1008 mmHg s-1
[39]
  BP: 1%
  dp/dt: 52 mmHg s-1
[40]
  Frequency: 23 beats min-1 and 21%
[41]
  Heart rate: 9 beats min-1
[42]
  dp/dt: 890 mmHg s-1
